Reference: patent US10471035B2, “Compositions and methods for using esters of meroterpenes and of other resveratrol analogues” (Sunny BioDiscovery, priority 2014, dated 2019)
Converted amounts (≈) assume the structure as drawn.

Key:
[1] = DPPH assay (free radical scavenging); assay type: biochemical; conditions: 520 nm
Description: The objective of this experiment was to determine the antioxidant capacity of SBD.SE, using DPPH assay methodology. DPPH (2,2-diphenyl-1-picrylhydrazyl) is a stable free radical. The principle of the DPPH assay uses the reduction of the DPPH radical (purple) to diphenylpicrylhydrazine (yellow) as an indication of free radical scavenging capacity of a given test material (Schenk, G. H., Swieczkowski, N. K., “Colorimetric determination of pyrogallol and 2,6-dimethoxyphenol with diphenylpicrylhydrazyl,” Talanta, 1971, 18:230-4). Following the incubation of a test agent with DPPH solution, a reduction in absorbance at 520 nm compared to control is indicative of DPPH-scavenging. The degree of DPPH scavenging activity is expressed as % water control.

[2] = system: non-irradiated neonatal HDF; experiment: Cytotoxicity on non-irradiated neonatal HDF monolayers; assay type: cell-based, human; conditions: 12.5 μg/ml
[3] = system: UVB-irradiated neonatal human dermal fibroblasts (HDF); experiment: MTT cytotoxicity on UVB-irradiated HDF; assay type: cell-based; conditions: 10 μg/ml
Description: Retinoids are used to remediate the effects of photoaging, caused by exposure to solar radiation (Tierney, E. P., Hanke C. W., “Recent Advances in Combination Treatments for Photoaging: Review of the Literature,” Dermatol. Surg., 2010, 36:829-40). Therefore, we compared the effect of bakuchiol and SBD.FA on confluent cultures of UVB-irradiated neonatal human dermal fibroblasts (HDF). The total irradiation dose (150mJ/cm2) was biologically relevant, i.e., equivalent to doses received by humans exposed to midday, clear sky, midsummer sun for a moderate period of time (Besaratinia, A., Kim, S. I., Pfeifer, G. P., “Rapid repair of UVA-induced oxidized purines and persistence of UVB-induced dipyrimidine lesions determine the mutagenicity of sunlight in mouse cells,” FASEB J., 2008, 22(7):2379-92). […] Under these conditions, the cytotoxicity at the highest concentration tested (10 μg/ml) compared to the water-treated control was 36% for bakuchiol and 8% for SBD.FA, as determined by the MTT method (Berridge M. V., Tan A. S., “Characterization of the Cellular Reduction of 3-(4,5-dimethylthiazol-2-yl)-2,5-diphenyltetrazolium bromide (MTT): Subcellular Localization, Substrate Dependence, and Involvement of Mitochondrial Electron Transport in MTT Reduction,” Arch. Biochem. Biophys. 1993, 303:474-482), using Molecular Devices microplate spectrophotometer MAX190 at 570 nm.

[4] = UVB irradiation, HPLC-MS profile; assay type: physicochemical; conditions: irradiated vs non-irradiated
Description: Both compounds were irradiated with UVB light and their HPLC-MS profile was compared to their respective non-irradiated controls. FIGS. 2, 3, 6, and 7 show HPLC chromatograms of UVB-irradiated (lower portions) and non-irradiated samples (upper portions) of bakuchiol (FIGS. 2 and 3) and SBD.SE (FIGS. 6 and 7) detected at 254 nm (FIGS. 2 and 6) and 230 nm (FIGS. 3 and 7).

RAR = experiment: Cignal RAR reporter assay; assay type: cell-based; conditions: 0.3 μg/ml
Description: Tissue irritation is a common side effect of retinoids. It is mediated, at least in part, by retinoid interaction with retinoic acid receptors (RARs; Thacher S M, Vasudevan J, Chandraratna R A. Therapeutic applications for ligands of retinoid receptors. Curr Pharm Des. 2000 January; 6(1):25-58; Kambayashi H, Odake Y, Takada K, Funasaka Y, Ichihashi M, Kato S. N-retinoyl-D-glucosamine, a new retinoic acid agonist, mediates topical retinoid efficacy with no irritation on photoaged skin. Br J Dermatol. 2005 December; 153 Suppl 2:30-6).

3T3 cells = experiment: 3T3 Neutral Red phototoxicity (OECD 432); assay type: cell-based; conditions: up to at least 100 μg/ml
Description: Phototoxicity is defined as light-activated cytotoxicity. […] The protocol followed in this example was based on the OECD 432 Guidelines. Four 96 well plates were seeded with 3T3 cells (Sigma, St. Louis, Mo.; cat. 93061524-1VL) at 10,000 cells per well in DMEM supplemented with 10% iron-fortified calf serum, and grown overnight in humidified atmosphere at 37° C. in 5% CO2. Serial dilutions of SBD.SE and chlorpromazine (positive control) were added to 2 plates each. […]
[…] Plates were returned to the incubator for 24 h, afterward the medium was removed, cells were rinsed with PBS and placed in Neutral Red medium at 50 μg/ml in which cells were incubated for 3 more hours. Wells were then washed with PBS and Neutral Red was extracted from cells with 1.0% Glacial Acetic Acid/50% Ethanol/49% H2O solution.
Following a 30-minute extraction with mixing, the absorbance of each well was measured at 570 nm with Molecular Devices SpectraMax® microplate spectrophotometer. P values were calculated using two-tailed Student's test and p=0.05 was set as borderline for statistical significance.

adult HEK = experiment: Adult HEK proliferation; assay type: cell-based, human; conditions: Homo sapiens; 2.5 μg/ml
P. acnes = experiment: MIC against planktonic P. acnes; assay type: cell-based, Propionibacterium acnes; conditions: Cutibacterium acnes; exponentially-growing planktonic bacteria, oxygen-free atmosphere; read-out: MIC (minimal inhibitory concentration)
Description: Serial dilutions of SBD.SE and SBD.FA were incubated with exponentially-growing planktonic P. acnes bacteria in oxygen-free atmosphere.
The MIC (minimal inhibitory concentration) for SBD.SE was determined to be about 30 μg/ml and for SBD.FA—about 60 μg/ml.

[5] = system: mouse melanoma cells (B16F10); experiment: B16F10 melanoma growth and melanin; assay type: cell-based; conditions: Mus musculus, B16-F10; 2.5 μg/ml; read-out: inhibition of B16F10 melanocyte proliferation
Description: Instead, cells cultured in the presence of SBD.SE grew slower and if allowed to reach monolayer, they become growth-arrested due to contact inhibition. […] Other retinoids, such as bexarotene, are known to have antineoplastic activity against cancers such as cutaneous T cell lymphoma.
The mechanism of action for this effect may be multifactorial and involve the inhibition of tyroinase and/or melanin secretion by melanocytes.

| stability under UVB irradiation (HPLC-MS) [4] | MIC (P. acnes) [µg/mL] | Structure (SMILES) | DPPH color (% Control) ([1]; 0.5 ug/ml) | DPPH color (% Control) ([1]; 2 ug/ml) | DPPH color (% Control) ([1]; 10 ug/ml) | cytotoxicity ([2]; monolayers formed before addition) [%] | cytotoxicity compared to the water-treated control ([3]; UVB 150mJ/cm2, added 24 h before, terminated 24 h after irradiation, MTT) [%] | increase of RAR-mediated transcription (RAR) [%] | cytotoxicity in absence and presence of UVB light (3T3 cells) | cytotoxicity ([2]; human) [%] | cytotoxicity compared to the water-treated control ([3]; human, 48 h) [%] | inhibition at 2.5 µg/mL (adult HEK) [%] | inhibition at 2.5 µg/mL [5] [%] |
| --- | --- | --- | --- | --- | --- | --- | --- | --- | --- | --- | --- | --- | --- |
| disintegrates | – | C=C[C@@](C)(/C=C/c1ccc(O)cc1)CCC=C(C)C [bakuchiol, reference compound] | 85 | 92 | 46 | 39 | 36 | – | – | – | – | – | – |
| – | – | CC1=C(/C=C/C(C)=C/C=C/C(C)=C/C(=O)O)C(C)(C)CCC1 [ATRA, all-trans retinoic acid, reference compound] | – | – | – | – | – | 460 | – | – | – | – | – |
| – | ~60 (≈ 139 µM) | C=CC(C)(/C=C/c1ccc(OC(=O)/C=C/c2ccc(O)c(OC)c2)cc1)CCC=C(C)C (stereo not shown) [SBD.FA] | 102 | 99 | 60 | – | – | – | lack of significant cytotoxicity | 8 | 8 | 21 | 53 |
